# Experimental data reported in patent publication US20260001889A1, “COMPOSITIONS USEFUL FOR MODULATING SPLICING” (Skyhawk Therapeutics, Inc., priority 2022, published 2026).
# Tests used:
# ATXN3-HiBiT protein = test: ATXN3 Total Protein Assay (Kelly-ATXN3-HiBiT luminescence); assay type: cell-based; conditions: Kelly-ATXN3-HiBiT cells, 48 h after addition of compound
# In short: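 Kelly cells with homozygous C-terminal HiBiT knock-in on endogenous ATXN3, 2000 per well, dosed 24 h after seeding. HiBiT lytic luminescence read 48 h after compound; sister plate read with CellTiter-Glo for viability; fold change vs DMSO.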
# [1] = tested on: ATXN3 transcripts containing exon 4; test: ATXN3 Quantitative Splicing Assay (qPCR, E4E5 primers/probe); assay type: cell-based; conditions: Homo sapiens, SK-N-MC cells, compounds for 24 h
# In short: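 SK-N-MC human neuroblastoma cells treated 24 h with compound from 30 μM to 0.6 nM, 24 h after plating. Lysate cDNA was run in TaqMan qPCR, with primers/probe E4E5 detecting exon 4-containing ATXN3 transcripts and E8E9 measuring total ATXN3.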
# total ATXN3 protein = test: ATXN3 Total Protein Assay (Mesoscale Discovery, SK-N-MC cells); assay type: cell-based, Human; conditions: incubation for 48 hours, MSD assay
# In short: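 Human SK-N-MC neuroblastoma cells treated with compound at 30 μM to 0.6 nM for 48 h, then lysed with protease inhibitors. Total ATXN3 quantified by MSD sandwich immunoassay (mouse capture, rabbit detect antibodies, anti-rabbit MSD-ST secondary) against recombinant ATXN3 standards.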
compound,measurement,setting,value
"C[C@H](F)[C@H](N)Cc1oc2c(NCc3cccs3)cc(Cl)nc2c1-c1ccoc1 [Compound 332, 2-[(2R,3S)-2-amino-3-fluorobutyl]-5-chloro-3-(3-furyl)-7-thenylamino-1-oxa-4-azaindene]",EC50,ATXN3-HiBiT protein,0.501 to 5 µM
same,IC50,[1],0.501 to 5 µM
same,IC50,total ATXN3 protein,0.501 to 5 µM
"C[C@H](F)[C@H](N)Cc1oc2c(NCc3cccs3)cc(Cl)nc2c1-c1ccn(C)n1 [Compound 333, 2-[(2R,3S)-2-amino-3-fluorobutyl]-5-chloro-3-(1-methyl-3-pyrazolyl)-7-thenylamino-1-oxa-4-azaindene]",EC50,ATXN3-HiBiT protein,5 to 10 µM
same,IC50,[1],0.501 to 5 µM
same,IC50,total ATXN3 protein,0.501 to 5 µM
"C[C@H](F)[C@H](N)Cc1oc2c(NCc3cccs3)cc(Cl)nc2c1-c1ccnn1C [Compound 334, 2-[(2R,3S)-2-amino-3-fluorobutyl]-5-chloro-3-(1-methyl-5-pyrazolyl)-7-thenylamino-1-oxa-4-azaindene]",EC50,ATXN3-HiBiT protein,10 to 40 µM
same,IC50,[1],10 to 40 µM
same,IC50,total ATXN3 protein,10 to 40 µM
"C[C@H](N)Cc1oc2c(NCc3ccc(F)cc3)cc(Cl)nc2c1Br [Compound 338, 2-[(S)-2-aminopropyl]-3-bromo-5-chloro-7-{[(p-fluorophenyl)methyl]amino}-1-oxa-4-azaindene]",EC50,ATXN3-HiBiT protein,0.501 to 5 µM
same,IC50,[1],0.501 to 5 µM
same,IC50,total ATXN3 protein,0.501 to 5 µM
"C[C@H](N)Cc1oc2c(NCc3ccccc3F)cc(Cl)nc2c1Br [Compound 340, 2-[(S)-2-aminopropyl]-3-bromo-5-chloro-7-{[(o-fluorophenyl)methyl]amino}-1-oxa-4-azaindene]",EC50,ATXN3-HiBiT protein,0.501 to 5 µM
same,IC50,[1],0.501 to 5 µM
same,IC50,total ATXN3 protein,0.501 to 5 µM
